Source: patent US20240228488A1 (TAKEDA PHARMACEUTICAL COMPANY LIMITED, priority 2021, published 2024)

These compounds were tested against human activated kallikrein enzyme (Homo sapiens, UniProt P03952) (assay: Plasma kallikrein inhibition, fluorogenic PFR-AMC substrate, 500 pM activated kallikrein format). Conditions: 500 pM activated kallikrein, 300 uM PFR-AMC, 30 min preincubation, 10 min reaction; read-out: Primary Dose Response Assay: Average EC50.
Format: biochemical
Method in brief: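 High-enzyme format of the fluorogenic peptide assay, with EC50 taken from AMC signal: 500 pM activated kallikrein, 300 uM Pro-Phe-Arg-AMC, 30 min compound preincubation and 10 min reaction, all at room temperature, pH 7.5.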

Chain of human activated kallikrein enzyme (P03952 391-638 limits assumed): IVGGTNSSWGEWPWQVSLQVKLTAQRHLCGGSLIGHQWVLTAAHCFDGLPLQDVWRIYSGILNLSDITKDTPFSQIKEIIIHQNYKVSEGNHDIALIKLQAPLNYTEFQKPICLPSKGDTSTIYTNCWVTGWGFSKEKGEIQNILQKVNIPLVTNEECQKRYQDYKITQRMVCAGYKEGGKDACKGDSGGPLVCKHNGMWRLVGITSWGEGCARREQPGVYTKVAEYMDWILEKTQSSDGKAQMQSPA
Chain of human activated kallikrein enzyme (P03952 20-390 partner limits assumed): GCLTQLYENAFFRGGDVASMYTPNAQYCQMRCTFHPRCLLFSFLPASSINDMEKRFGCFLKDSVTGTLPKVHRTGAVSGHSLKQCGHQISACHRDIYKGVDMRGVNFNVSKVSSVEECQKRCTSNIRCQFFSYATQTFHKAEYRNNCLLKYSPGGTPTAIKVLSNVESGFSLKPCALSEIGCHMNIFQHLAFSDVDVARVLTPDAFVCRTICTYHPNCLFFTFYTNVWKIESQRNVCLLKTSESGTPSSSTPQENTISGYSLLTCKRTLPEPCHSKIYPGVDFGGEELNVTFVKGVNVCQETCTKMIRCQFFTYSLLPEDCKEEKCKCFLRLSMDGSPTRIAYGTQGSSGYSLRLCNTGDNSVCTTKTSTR

Structure (SMILES) | EC50 [nM]
CC(C)(C)OC(=O)Nc1cc(C2CC2)cn2cc(CNc3cc(NC(=O)[C@H]4C[C@@H]4c4cccc(Cl)c4)ncn3)nc12 [Example I-156, tert-butyl (2-(((6-((15,2S)-2-(3-chlorophenyl)cyclopropane-1-carboxamido)pyrimidin-4-yl)amino)methyl)-6-cyclopropylimidazo[1,2-a]pyridin-8-yl)carbamate] | 100 to 1000
O=C(Nc1cc(NCc2cn3cc(C4CC4)ccc3n2)ncn1)[C@H]1C[C@@H]1c1cc(Cl)ccc1OC(F)F (racemic) [Example 311, rac-(1S*,2S*)-2-(5-chloro-2-(difluoromethoxy)phenyl)-N-(6-(((6-cyclopropylimidazo[1,2-a]pyridin-2-yl)methyl)amino)pyrimidin-4-yl)cyclopropane-1-carboxamide] | 10 to 100
CN(C)c1ccc2nc(CNc3cc(NC(=O)[C@H]4C[C@@H]4c4cccc(Cl)c4)ncn3)cn2c1 [Example I-205, (1S,2S)-2-(3-chlorophenyl)-N-(6-(((6-(dimethylamino)imidazo[1,2-a]pyridin-2-yl)methyl)amino)pyrimidin-4-yl)cyclopropane-1-carboxamide] | 10 to 100
COc1cc([C@H]2C[C@@H]2C(=O)Nc2cc(NCc3cn4cc(C5CC5)ccc4n3)ccn2)cc(N)n1 (racemic) [Example 286, rac-(1S*,2S*)-2-(2-amino-6-methoxypyridin-4-yl)-N-(4-(((6-cyclopropylimidazo[1,2-a]pyridin-2-yl)methyl)amino)pyridin-2-yl)cyclopropane-1-carboxamide] | 10 to 100
Nc1cc(Cl)cc([C@H]2C[C@@H]2C(=O)Nc2cc(NCc3cn4cc(C5CC5)ccc4n3)ncn2)c1 (racemic) [Example I-256, rac-(1S*,2S*)-2-(3-amino-5-chlorophenyl)-N-(6-(((6-cyclopropylimidazo[1,2-a]pyridin-2-yl)methylamino)pyrimidin-4-yl)cyclopropane-1-carboxamide] | 10 to 100
O=C(Nc1cc(NCc2cn3cc(C4CC4)ccc3n2)ccn1)[C@@H]1C[C@]12C(=O)Nc1ccc(Cl)cc12 (racemic) [Example 514, rac-(1R*,2S*)-5′-chloro-N-(4-(((6-cyclopropylimidazo[1,2-a]pyridin-2-yl)methyl)amino)pyridin-2-yl)-2′-oxospiro[cyclopropane-1,3′-indoline]-2-carboxamide] | 10 to 100
O=C(Nc1cn(Cc2cn3cc(C4CC4)ccc3n2)nn1)[C@H]1C[C@@H]1c1cccc(Cl)c1 (racemic) [Example 593, rac-(1S*,2S*)-2-(3-chlorophenyl)-N-(1-((6-cyclopropylimidazo[1,2-a]pyridin-2-yl)methyl)-1H-1,2,3-triazol-4-yl)cyclopropane-1-carboxamide] | > 6000
Nc1cc(Cl)cc([C@H]2C[C@@H]2C(=O)Nc2cc(NCc3cn4cc(C5CC5)ccc4n3)ncn2)c1 (single isomer, unassigned) [Example I-258, rac-(1S*,2S*)-2-(3-amino-5-chlorophenyl)-N-(6-(((6-cyclopropylimidazo[1,2-a]pyridin-2-yl)methyl)amino)pyrimidin-4-yl)cyclopropane-1-carboxamide] | 1000 to 6000
N#Cc1cc(C2CC2)cn2cc(COc3ccnc(NC(=O)[C@H]4C[C@@H]4c4cccc(Cl)c4)c3)nc12 (racemic) [Example 567, rac-(1S*,2S*)-2-(3-chlorophenyl)-N-(4-((8-cyano-6-cyclopropylimidazo[1,2-a]pyridin-2-yl)methoxy)pyridin-2-yl)cyclopropane-1-carboxamide] | 10 to 100
O=C(Nc1cc(NCc2cn3cc(C4CC4)ccc3n2)ccn1)[C@H]1C[C@@H]1c1ccnc(Cl)c1 (racemic) [Example I-220, rac-(1S*,2S*)-2-(2-chloropyridin-4-yl)-N-(4-(((6-cyclopropylimidazo[1,2-a]pyridin-2-yl)methyl)amino)pyridin-2-yl)cyclopropane-1-carboxamide] | 10 to 100
Cc1ccnc([C@H]2C[C@]2(F)C(=O)Nc2cc(N[C@H](C)c3cn4cc(C5CC5)cc(N5CC(=O)N(C)C5=O)c4n3)nc(C)n2)n1 (racemic) [Example 528, rac-(1S*,2S*)-N-(6-(((R)-1-(6-cyclopropyl-8-(3-methyl-2,4-dioxoimidazolidin-1-yl)imidazo[1,2-a]pyridin-2-yl)ethyl)amino)-2-methylpyrimidin-4-yl)-1-fluoro-2-(4-methylpyrimidin-2-yl)cyclopropane-1-carboxamide] | 1 to 10
Cc1ccnc([C@H]2C[C@@H]2C(=O)Nc2cc(NCc3cn4cc(C5CC5)ccc4n3)ccc2S(C)(=O)=O)n1 (racemic) [Example 619, rac-(1S*,2S*)—N-(5-(((6-cyclopropylimidazo[1,2-a]pyridin-2-yl)methyl)amino)-2-(methylsulfonyl)phenyl)-2-(4-methylpyrimidin-2-yl)cyclopropane-1-carboxamide] | 1000 to 6000
O=C(Nc1cc(NCc2cn3cc(C4CC4)cc(N4CCN5CC(F)(F)CC5C4)c3n2)ccn1)[C@H]1C[C@@H]1c1cccc(Cl)c1 (stereo partly drawn) [Example I-230, (1S,2S)-2-(3-chlorophenyl)-N-(4-(((6-cyclopropyl-8-(7,7-difluorohexahydropyrrolo[1,2-a]pyrazin-2(1H)-yl)imidazo[1,2-a]pyridin-2-yl)methyl)amino)pyridin-2-yl)cyclopropane-1-carboxamide] | 1 to 10

Results, then the compound that gave them:

EC50 [nM] | Structure (SMILES)
< 1 | O=C(Nc1nccc2nn(Cc3cn4cc(C5CC5)ccc4n3)cc12)[C@H]1C[C@@H]1c1cc(Cl)ccn1 [Example 577, (1S,2S)-2-(4-chloropyridin-2-yl)-N-(2-((6-cyclopropylimidazo[1,2-a]pyridin-2-yl)methyl)-2H-pyrazolo[4,3-c]pyridin-4-yl)cyclopropane-1-carboxamide]
< 1 | Cc1ccnc([C@H]2C[C@@H]2C(=O)Nc2cc(OCc3cn4cc(C5CC5)cc(N5CC6CC6C5=O)c4n3)cnn2)n1 (stereo partly drawn) [Example 571, (1S,2S)-N-(5-((6-cyclopropyl-8-(2-oxo-3-azabicyclo[3.1.0]hexan-3-yl)imidazo[1,2-a]pyridin-2-yl)methoxy)pyridazin-3-yl)-2-(4-methylpyrimidin-2-yl)cyclopropane-1-carboxamide]
1 to 10 | O=C(Nc1cc(NCc2cn3cc(C4CC4)ccc3n2)ncn1)[C@H]1[C@H](F)[C@@H]1c1cccc(Cl)c1 (racemic) [Example 511, rac-(1R*,2R*,3S*)-2-(3-chlorophenyl)-N-(6-(((6-cyclopropylimidazo[1,2-a]pyridin-2-yl)methyl)amino)pyrimidin-4-yl)-3-fluorocyclopropane-1-carboxamide]
< 1 | Cc1ccnc([C@H]2C[C@@H]2C(=O)Nc2nccc3nc(Cc4cn5cc(C6CC6)cc(N6CC(=O)N(C)C6=O)c5n4)oc23)n1 [Example 629, (1S,2S)—N-(2-((6-cyclopropyl-8-(3-methyl-2,4-dioxoimidazolidin-1-yl)imidazo[1,2-a]pyridin-2-yl)methyl)oxazolo[5,4-c]pyridin-4-yl)-2-(4-methylpyrimidin-2-yl)cyclopropane-1-carboxamide]
1 to 10 | CN1C(=O)CN(c2cc(C3CC3)cn3cc(CNc4cc(NC(=O)C5CC5(F)c5cccc(Cl)c5)ncn4)nc23)C1=O (racemic) [Example 329, rac-2-(3-chlorophenyl)-N-(6-(((6-cyclopropyl-8-(3-methyl-2,4-dioxoimidazolidin-1-yl)imidazo[1,2-a]pyridin-2-yl)methyl)amino)pyrimidin-4-yl)-2-fluorocyclopropane-1-carboxamide]
< 1 | O=C(Nc1cc(NCc2cn3cc(C4CC4)ccc3n2)ccn1)[C@@H]1C[C@]12CCc1ccc(Cl)cc12 (racemic) [Example I-271, rac-(1S*,2S*)-6′-chloro-N-(4-(((6-cyclopropylimidazo[1,2-a]pyridin-2-yl)methyl)amino)pyridin-2-yl)-2′,3′-dihydrospiro[cyclopropane-1,1′-indene]-2-carboxamide]
< 1 | Cc1ccnc([C@H]2C[C@@H]2C(=O)Nc2ccc(F)c(NCc3cn4cc(C5CC5)cc(N5CC(=O)N(C)C5=O)c4n3)c2)n1 [Example 656, (1S,2S)—N-(3-(((6-cyclopropyl-8-(3-methyl-2,4-dioxoimidazolidin-1-yl)imidazo[1,2-a]pyridin-2-yl)methyl)amino)-4-fluorophenyl)-2-(4-methylpyrimidin-2-yl)cyclopropane-1-carboxamide]
< 1 | Cc1ccnc([C@H]2C[C@@H]2C(=O)Nc2cc(N[C@H](C)c3cn4cc(C(F)F)cc(N5CC(=O)N(C)C5=O)c4n3)nc(C)n2)n1 [Example 428, (1S,2S)-N-(6-(((R)-1-(6-(difluoromethyl)-8-(3-methyl-2,4-dioxoimidazolidin-1-yl)imidazo[1,2-a]pyridin-2-yl)ethyl)amino)-2-methylpyrimidin-4-yl)-2-(4-methylpyrimidin-2-yl)cyclopropane-1-carboxamide]
< 1 | CN1CCN(c2cc(Cl)cn3cc(CNc4ccnc(NC(=O)[C@H]5C[C@@H]5c5cccc(Cl)c5)c4)nc23)CC1 [Example I-252, (1S,2S)-N-(4-(((6-chloro-8-(4-methylpiperazin-1-yl)imidazo[1,2-a]pyridin-2-yl)methyl)amino)pyridin-2-yl)-2-(3-chlorophenyl)cyclopropane-1-carboxamide]
1 to 10 | CN(C)C1CCN(c2cc(C3CC3)cn3cc(CNc4cc(NC(=O)[C@H]5C[C@@H]5c5cccc(Cl)c5)ncn4)nc23)C1 (single isomer, unassigned) [Example I-15]
< 1 | Cc1ccnc([C@H]2C[C@@H]2C(=O)Nc2cc(NCc3cn4cc(Cl)cc(N5CC(=O)N(C)C5=O)c4n3)ncn2)n1 [Example 380, (1S,2S)-N-(6-(((6-chloro-8-(3-methyl-2,4-dioxoimidazolidin-1-yl)imidazo[1,2-a]pyridin-2-yl)methyl)amino)pyrimidin-4-yl)-2-(4-methylpyrimidin-2-yl)cyclopropane-1-carboxamide]
